Assay: Phase 1 study: safety and tolerability
Type: in vivo
Method: The maximum tolerated dose (MTD) of DZD1516 was defined based on safety data and the Bayesian optimal interval (BOIN) design (Additional file 1). The definition of DLT is provided in Additional file 1.
The AE grading was assessed according to the NCI-Common Terminology Criteria for Adverse Events (CTCAE) (version 5.0) and was monitored until 28 days after the last dose.
Eligible patients received single oral dosing of DZD1516 on Cycle 0 Day 1 (C0D1), followed by a 7-day washout. Twice daily oral dosing (bid) of DZD1516 was commenced from C1D1 in a continuous 21-day cycle until disease progression, unacceptable toxicity, or withdrawal of consent. All doses were taken under fed conditions (within 30 minutes after a meal).
Planned dosing consisted of 25, 50, 100, 200, 300, and 400 mg. Each dose escalation cohort will comprise a minimum of three and a maximum of six evaluable patients (except only one patient in the starting dose cohort). The maximum tolerated dose of DZD1516 was defined according to safety data and the Bayesian optimal interval (BOIN) design. Dose escalation/de-escalation rule with target toxicity rate for the MTD is 0.30 with interval of (0.20, 0.33).
DLTs were any adverse event (AE) not clearly attributable to the patient’s disease, including ≥ grade 4 hematological toxicities present for ≥ 4 days, grade 3 thrombocytopenia with bleeding, or grade 4 thrombocytopenia lasting for > 5 days, ≥ grade 3 non-hematological toxicities that is dose-limiting in the judgment of the investigators. Any other toxicity that is greater than that at baseline, is clinically significant or unacceptable, and is judged to be a DLT by the SRC. Exceptions included alopecia of any grade and isolated grade 3 laboratory change without clinical sequelae or clinical significance.
Safety evaluations were conducted at screening, on Day 1, 8, and 15 of Cycle 1, on Day 1 of each subsequent treatment cycle, at the end-of-treatment visit, and clinically indicated. Safety assessments included clinical laboratory measurements (hematology, chemistry, coagulation, and urinalysis), electrocardiogram (ECG), Echocardiogram/MUGA scan, ECOG performance status, vital signs, and physical examinations.

COc1cc(O[C@H]2CCN(C)CC2(F)F)c2c(Nc3ccc(Oc4ccn5ncnc5c4)c(C)c3)ncnc2c1 [DZD1516]
Headache, ≥ Grade 3 (200 mg (N = 5)): 0 (0.0) n (%)
Hemoglobin decreased, Any Grade (200 mg (N = 5)): 3 (60.0) n (%)
Hemoglobin decreased, ≥ Grade 3 (200 mg (N = 5)): 0 (0.0) n (%)
Investigations, Any Grade (200 mg (N = 5)): 4 (80.0) n (%)
Investigations, ≥ Grade 3 (200 mg (N = 5)): 1 (20.0) n (%)
Lipase increased, Any Grade (200 mg (N = 5)): 1 (20.0) n (%)
Lipase increased, ≥ Grade 3 (200 mg (N = 5)): 0 (0.0) n (%)
Malaise, Any Grade (200 mg (N = 5)): 1 (20.0) n (%)
Malaise, ≥ Grade 3 (200 mg (N = 5)): 0 (0.0) n (%)
Metabolism and nutrition disorders, Any Grade (200 mg (N = 5)): 3 (60.0) n (%)
Metabolism and nutrition disorders, ≥ Grade 3 (200 mg (N = 5)): 0 (0.0) n (%)
Musculoskeletal and connective tissue disorders, Any Grade (200 mg (N = 5)): 0 (0.0) n (%)
Musculoskeletal and connective tissue disorders, ≥ Grade 3 (200 mg (N = 5)): 0 (0.0) n (%)
Nausea, Any Grade (200 mg (N = 5)): 1 (20.0) n (%)
Nausea, ≥ Grade 3 (200 mg (N = 5)): 0 (0.0) n (%)
Nervous system disorders, Any Grade (200 mg (N = 5)): 2 (40.0) n (%)
Nervous system disorders, ≥ Grade 3 (200 mg (N = 5)): 0 (0.0) n (%)
Participants with any TEAE, Any Grade (200 mg (N = 5)): 5 (100.0) n (%)
Participants with any TEAE, ≥ Grade 3 (200 mg (N = 5)): 1 (20.0) n (%)
Platelet count decreased, Any Grade (200 mg (N = 5)): 1 (20.0) n (%)
Platelet count decreased, ≥ Grade 3 (200 mg (N = 5)): 0 (0.0) n (%)
Proteinuria, Any Grade (200 mg (N = 5)): 2 (40.0) n (%)
Proteinuria, ≥ Grade 3 (200 mg (N = 5)): 0 (0.0) n (%)
Renal and urinary disorders, Any Grade (200 mg (N = 5)): 2 (40.0) n (%)
Renal and urinary disorders, ≥ Grade 3 (200 mg (N = 5)): 0 (0.0) n (%)
Subjects with any TEAE (200 mg (N = 5)): 5 (100.0) n (%)
Subjects with any drug-related TEAE (200 mg (N = 5)): 5 (100.0) n (%)
Vomiting, Any Grade (200 mg (N = 5)): 3 (60.0) n (%)
Vomiting, ≥ Grade 3 (200 mg (N = 5)): 0 (0.0) n (%)
White blood cell count decreased, Any Grade (200 mg (N = 5)): 0 (0.0) n (%)
White blood cell count decreased, ≥ Grade 3 (200 mg (N = 5)): 0 (0.0) n (%)
Alanine aminotransferase increased, Any Grade (250 mg (N = 5)): 1 (20.0) n (%)
Alanine aminotransferase increased, ≥ Grade 3 (250 mg (N = 5)): 0 (0.0) n (%)
Anemia, Any Grade (250 mg (N = 5)): 1 (20.0) n (%)
Anemia, ≥ Grade 3 (250 mg (N = 5)): 0 (0.0) n (%)
Any TEAE: Grade 3 (250 mg (N = 5)): 1 (20.0) n (%)
Any TEAE: Leading to death (250 mg (N = 5)): 0 (0.0) n (%)
Any TEAE: Leading to dose reduction (250 mg (N = 5)): 0 (0.0) n (%)
Any TEAE: Leading to treatment discontinuation (250 mg (N = 5)): 0 (0.0) n (%)
Any TEAE: Leading to treatment interruption (250 mg (N = 5)): 1 (20.0) n (%)
Any TEAE: SAE (250 mg (N = 5)): 1 (20.0) n (%)
Aspartate aminotransferase increased, Any Grade (250 mg (N = 5)): 2 (40.0) n (%)
Aspartate aminotransferase increased, ≥ Grade 3 (250 mg (N = 5)): 0 (0.0) n (%)
Blood and lymphatic system disorders, Any Grade (250 mg (N = 5)): 1 (20.0) n (%)
Blood and lymphatic system disorders, ≥ Grade 3 (250 mg (N = 5)): 0 (0.0) n (%)
Blood bilirubin increased, Any Grade (250 mg (N = 5)): 1 (20.0) n (%)
Blood bilirubin increased, ≥ Grade 3 (250 mg (N = 5)): 0 (0.0) n (%)
Cardiac disorders, Any Grade (250 mg (N = 5)): 2 (40.0) n (%)
Cardiac disorders, ≥ Grade 3 (250 mg (N = 5)): 0 (0.0) n (%)
Constipation, Any Grade (250 mg (N = 5)): 0 (0.0) n (%)
Constipation, ≥ Grade 3 (250 mg (N = 5)): 0 (0.0) n (%)
Decreased appetite, Any Grade (250 mg (N = 5)): 0 (0.0) n (%)
Decreased appetite, ≥ Grade 3 (250 mg (N = 5)): 0 (0.0) n (%)
Dizziness, Any Grade (250 mg (N = 5)): 1 (20.0) n (%)
Dizziness, ≥ Grade 3 (250 mg (N = 5)): 0 (0.0) n (%)
Drug-related TEAE: Grade 3 (250 mg (N = 5)): 0 (0.0) n (%)
Drug-related TEAE: Leading to death (250 mg (N = 5)): 0 (0.0) n (%)
Drug-related TEAE: Leading to dose reduction (250 mg (N = 5)): 0 (0.0) n (%)
Drug-related TEAE: Leading to treatment discontinuation (250 mg (N = 5)): 0 (0.0) n (%)
Drug-related TEAE: Leading to treatment interruption (250 mg (N = 5)): 0 (0.0) n (%)
Drug-related TEAE: SAE (250 mg (N = 5)): 0 (0.0) n (%)
Fatigue, Any Grade (250 mg (N = 5)): 1 (20.0) n (%)
Fatigue, ≥ Grade 3 (250 mg (N = 5)): 0 (0.0) n (%)
Gastrointestinal disorders, Any Grade (250 mg (N = 5)): 1 (20.0) n (%)
Gastrointestinal disorders, ≥ Grade 3 (250 mg (N = 5)): 1 (20.0) n (%)
General disorders and administration site conditions, Any Grade (250 mg (N = 5)): 2 (40.0) n (%)
General disorders and administration site conditions, ≥ Grade 3 (250 mg (N = 5)): 0 (0.0) n (%)
Headache, Any Grade (250 mg (N = 5)): 2 (40.0) n (%)
Headache, ≥ Grade 3 (250 mg (N = 5)): 0 (0.0) n (%)
Hemoglobin decreased, Any Grade (250 mg (N = 5)): 2 (40.0) n (%)
Hemoglobin decreased, ≥ Grade 3 (250 mg (N = 5)): 0 (0.0) n (%)
Investigations, Any Grade (250 mg (N = 5)): 2 (40.0) n (%)
Investigations, ≥ Grade 3 (250 mg (N = 5)): 0 (0.0) n (%)
Lipase increased, Any Grade (250 mg (N = 5)): 0 (0.0) n (%)
Lipase increased, ≥ Grade 3 (250 mg (N = 5)): 0 (0.0) n (%)
Malaise, Any Grade (250 mg (N = 5)): 1 (20.0) n (%)
Malaise, ≥ Grade 3 (250 mg (N = 5)): 0 (0.0) n (%)
Metabolism and nutrition disorders, Any Grade (250 mg (N = 5)): 1 (20.0) n (%)
Metabolism and nutrition disorders, ≥ Grade 3 (250 mg (N = 5)): 0 (0.0) n (%)
Musculoskeletal and connective tissue disorders, Any Grade (250 mg (N = 5)): 3 (60.0) n (%)
Musculoskeletal and connective tissue disorders, ≥ Grade 3 (250 mg (N = 5)): 1 (20.0) n (%)
Nausea, Any Grade (250 mg (N = 5)): 1 (20.0) n (%)
Nausea, ≥ Grade 3 (250 mg (N = 5)): 0 (0.0) n (%)
Nervous system disorders, Any Grade (250 mg (N = 5)): 4 (80.0) n (%)
Nervous system disorders, ≥ Grade 3 (250 mg (N = 5)): 0 (0.0) n (%)
Participants with any TEAE, Any Grade (250 mg (N = 5)): 5 (100.0) n (%)
Participants with any TEAE, ≥ Grade 3 (250 mg (N = 5)): 1 (20.0) n (%)
Platelet count decreased, Any Grade (250 mg (N = 5)): 0 (0.0) n (%)
Platelet count decreased, ≥ Grade 3 (250 mg (N = 5)): 0 (0.0) n (%)
Proteinuria, Any Grade (250 mg (N = 5)): 0 (0.0) n (%)
Proteinuria, ≥ Grade 3 (250 mg (N = 5)): 0 (0.0) n (%)
Renal and urinary disorders, Any Grade (250 mg (N = 5)): 0 (0.0) n (%)
Renal and urinary disorders, ≥ Grade 3 (250 mg (N = 5)): 0 (0.0) n (%)
Subjects with any TEAE (250 mg (N = 5)): 5 (100.0) n (%)
Subjects with any drug-related TEAE (250 mg (N = 5)): 4 (80.0) n (%)
Vomiting, Any Grade (250 mg (N = 5)): 0 (0.0) n (%)
Vomiting, ≥ Grade 3 (250 mg (N = 5)): 0 (0.0) n (%)
White blood cell count decreased, Any Grade (250 mg (N = 5)): 2 (40.0) n (%)
White blood cell count decreased, ≥ Grade 3 (250 mg (N = 5)): 0 (0.0) n (%)
dose-limiting toxicities (DLTs) (250 mg cohort): none of the patients in the 250 mg cohort experiencing DLTs
Alanine aminotransferase increased, Any Grade (300 mg (N = 4)): 1 (25.0) n (%)
Alanine aminotransferase increased, ≥ Grade 3 (300 mg (N = 4)): 0 (0.0) n (%)
Anemia, Any Grade (300 mg (N = 4)): 0 (0.0) n (%)
Anemia, ≥ Grade 3 (300 mg (N = 4)): 0 (0.0) n (%)
Any TEAE: Grade 3 (300 mg (N = 4)): 3 (75.0) n (%)
Any TEAE: Leading to death (300 mg (N = 4)): 0 (0.0) n (%)
Any TEAE: Leading to dose reduction (300 mg (N = 4)): 3 (75.0) n (%)
Any TEAE: Leading to treatment discontinuation (300 mg (N = 4)): 1 (25.0) n (%)
Any TEAE: Leading to treatment interruption (300 mg (N = 4)): 3 (75.0) n (%)
Any TEAE: SAE (300 mg (N = 4)): 0 (0.0) n (%)
Aspartate aminotransferase increased, Any Grade (300 mg (N = 4)): 1 (25.0) n (%)
Aspartate aminotransferase increased, ≥ Grade 3 (300 mg (N = 4)): 0 (0.0) n (%)
Blood and lymphatic system disorders, Any Grade (300 mg (N = 4)): 0 (0.0) n (%)
Blood and lymphatic system disorders, ≥ Grade 3 (300 mg (N = 4)): 0 (0.0) n (%)
Blood bilirubin increased, Any Grade (300 mg (N = 4)): 0 (0.0) n (%)
Blood bilirubin increased, ≥ Grade 3 (300 mg (N = 4)): 0 (0.0) n (%)
Cardiac disorders, Any Grade (300 mg (N = 4)): 0 (0.0) n (%)
Cardiac disorders, ≥ Grade 3 (300 mg (N = 4)): 0 (0.0) n (%)
Constipation, Any Grade (300 mg (N = 4)): 1 (25.0) n (%)
Constipation, ≥ Grade 3 (300 mg (N = 4)): 0 (0.0) n (%)
Decreased appetite, Any Grade (300 mg (N = 4)): 3 (75.0) n (%)

From article PMC10327353 (Breast Cancer Research : BCR, 2023)
